Tested on: TNF production by monocytes activated with bacterial lipopolysaccharide (LPS)
Experiment: Lipopolysaccharide-activated monocyte TNF production assay
Format: cell-based
Settings: Homo sapiens, 4 h, adherent PBMC-derived monocytes, LPS from E. coli, TNF in supernatant by ELISA, read-out: IC50 values in the monocyte assay (LPS induced TNF release)
Method: Test compounds were evaluated in vitro for the ability to inhibit the production of TNF by monocytes activated with bacterial lipopolysaccharide (LPS). Fresh residual source leukocytes (a byproduct of plateletpheresis) were obtained from a local blood bank, and peripheral blood mononuclear cells (PBMCs) were isolated by density gradient centrifugation on Ficol-Paque Plus (Pharmacia). PBMCs were suspended at […] /ml in DMEM supplemented to contain 2% FCS, 10 mM, 0.3 mg/ml glutamate, 100 U/ml penicillin G and […] streptomycin sulfate (complete media). Cells were plated into Falcon flat bottom, 96 well culture plates (200 µl/well) and cultured overnight at 37°C and 6% CO2. Non-adherent cells were removed by washing with 200 µl/well of fresh medium. Wells containing adherent cells (~70% monocytes) were replenished with 100 µl of fresh medium.
Test compounds were dissolved in […]. Compound stock solutions were prepared to an initial concentration of […]. Stocks were diluted initially to 20 - 200 µM in complete media. Nine twofold serial dilutions of each compound were then prepared in complete medium.
One hundred microliters of each test compound dilution were added to microtiter wells containing adherent monocytes and 100 µl complete medium. Monocytes were cultured with test compounds for 60 min at which time 25 µl of complete medium containing 30 ng/ml lipopolysaccharide from E. coli K532 were added to each well. Cells were cultured an additional 4 hrs. Culture supernatants were then removed and TNF presence in the supernatants was quantified using an ELISA.
Flat bottom, 96 well Corning High Binding ELISA plates were coated overnight (4°C) with 150 µL/well of 3 µg/ml murine anti-human TNF-α MAb (R&D Systems #MAB210). […]
Standard curve data were fit to a second order polynomial and unknown TNF-α concentrations determined from their OD by solving this equation for concentration. […]

| Structure (SMILES) | IC50 |
| --- | --- |
| Cc1cccc(-c2cc(OCCCc3ccccc3)ncc2-c2ccncc2)c1 [Example 18, 2-(3-phenylpropoxy)-4-(3-methylphenyl)-5-(4-pyridyl)pyridine] | ≤ 20 µM |
| Cc1cccc(-c2cc(OC[C@@H](N)Cc3ccccc3)ncc2-c2ccncc2)c1 [Example 14, 2-((S)-2-amino-3-phenylpropoxy)-4-(3-methylphenyl)-5-(4-pyridyl)pyridine] | ≤ 20 µM |
| Cc1cccc(-c2cc(=O)n(CCCc3ccccc3)cc2-c2ccncc2)c1 [Example 19, 1-(3-phenylpropyl)-4-(3-methylphenyl)-5-(4-pyridyl)-1H-pyrid-2-one] | ≤ 20 µM |

Reference: patent publication EP1042293B9, “SUBSTITUTED PYRIDINE AND PYRIDAZINE COMPOUNDS AND THEIR PHARMACEUTICAL USE” (AMGEN INC., priority 1997, dated 1999)
